Results published in paper PMC9119168 (Antiviral Research, 2022).

Experiments:
SARS-CoV Mac1 = SARS-CoV Mac1 (Severe acute respiratory syndrome coronavirus, UniProt P0C6X7); assay type: binding; settings: read-out: AS assay IC50 SARS-CoV
MERS-CoV Mac1 = MERS-CoV Mac1 (Middle East respiratory syndrome-related coronavirus, UniProt K9N7C7); assay type: binding; settings: read-out: IC50 AS MERS
SARS-CoV-2 Mac1 [1] = target: T1, SARS-CoV-2 Mac1 (Severe acute respiratory syndrome coronavirus 2, UniProt P0DTD1); settings: read-out: IC50 Mac1 mono-ARH activity; ref Dasovich et al., 2022; cited from earlier work
mammalian cells = settings: cited from earlier work
Mac1 = settings: ref Ni et al., 2021; cited from earlier work
SARS-CoV-2 Mac1 [2] = target: T1, SARS-CoV-2 Mac1; test: Differential scanning fluorimetry; assay type: binding

Chain of MERS-CoV Mac1 (K9N7C7 1110-1276 limits assumed): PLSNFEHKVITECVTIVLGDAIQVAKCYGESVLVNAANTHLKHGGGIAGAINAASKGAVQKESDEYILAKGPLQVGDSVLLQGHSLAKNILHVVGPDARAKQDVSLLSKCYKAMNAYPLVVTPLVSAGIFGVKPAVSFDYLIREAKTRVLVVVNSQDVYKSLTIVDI

With `Nc1ncnc2c1ncn2[C@@H]1O[C@H](COP(=O)(O)OP(=O)(O)OC[C@H]2OC(O)[C@H](O)[C@@H]2O)[C@@H](O)[C@H]1O` (stereo partly drawn) [ADP-ribose] as the molecule, how does the IC50 (SARS-CoV Mac1) read?
The IC50 was 240 nM.

What about the IC50 (MERS-CoV Mac1) of the same molecule?
Its IC50 is 1250 ± 230 nM.

With `Cc1nc(Nc2ncc(C(=O)Nc3c(C)cccc3Cl)s2)cc(N2CCN(CCO)CC2)n1` [Dasatinib] as the molecule, how does the IC50 (SARS-CoV-2 Mac1 [1]) read?
The IC50 was ~50000 nM.

And the “toxicity to mammalian cells (in words)” value (mammalian cells)?
The value was “toxic to mammalian cells”.

For `N#C[C@@]1(c2ccc3c(N)ncnn23)O[C@H](CO)[C@@H](O)[C@H]1O` [GS-441524], which “binding to Mac1 (in words)” value (Mac1) is on record?
The value was “bound to Mac1”.

For `Nc1ncnc2c1ncn2[C@@H]1O[C@H](COP(=O)(O)OP(=O)(O)OP(=O)(O)O)[C@@H](O)[C@H]1O` [ATP], which “thermal shift of Mac1 in DSF (in words)” value (SARS-CoV-2 Mac1 [2]) is on record?
The value was “no effect”.
